Assay results: ChEMBL document CHEMBL5620381, “Design, synthesis and antitubercular activity of novel N-(amino)piperazinyl benzothiazinones with improved safety” (Eur J Med Chem, 2023)
Values after ≈ are worked out from the molar mass of the structure shown.

Experiments:
[1] = test system: Mycobacterium tuberculosis; assay: Antitubercular activity against Mycobacterium tuberculosis H37Rv […] incubated for 8 days by MABA; type: functional; settings: 192 h, time 8 day
[2] = Cytotoxicity against human THP-1 cells incubated for 48 hrs by MTS/PMS assay; type: toxicity, cell-based
[3] = Selectivity index, ratio of CC50 for human THP-1 cells to MIC for Mycobacterium tuberculosis H37Rv […]; type: toxicity; settings: read-out: Selectivity Index
[4] = target: hERG (KCNH2) (Homo sapiens, UniProt Q12809); assay: Inhibition of human ERG expressed in HEK293 cells at 10 uM by whole cell patch clamp assay relative to control; type: toxicity, cell-based; settings: HEK293 cells expressing human ERG
Sequence of hERG (KCNH2) (Q12809 whole entry): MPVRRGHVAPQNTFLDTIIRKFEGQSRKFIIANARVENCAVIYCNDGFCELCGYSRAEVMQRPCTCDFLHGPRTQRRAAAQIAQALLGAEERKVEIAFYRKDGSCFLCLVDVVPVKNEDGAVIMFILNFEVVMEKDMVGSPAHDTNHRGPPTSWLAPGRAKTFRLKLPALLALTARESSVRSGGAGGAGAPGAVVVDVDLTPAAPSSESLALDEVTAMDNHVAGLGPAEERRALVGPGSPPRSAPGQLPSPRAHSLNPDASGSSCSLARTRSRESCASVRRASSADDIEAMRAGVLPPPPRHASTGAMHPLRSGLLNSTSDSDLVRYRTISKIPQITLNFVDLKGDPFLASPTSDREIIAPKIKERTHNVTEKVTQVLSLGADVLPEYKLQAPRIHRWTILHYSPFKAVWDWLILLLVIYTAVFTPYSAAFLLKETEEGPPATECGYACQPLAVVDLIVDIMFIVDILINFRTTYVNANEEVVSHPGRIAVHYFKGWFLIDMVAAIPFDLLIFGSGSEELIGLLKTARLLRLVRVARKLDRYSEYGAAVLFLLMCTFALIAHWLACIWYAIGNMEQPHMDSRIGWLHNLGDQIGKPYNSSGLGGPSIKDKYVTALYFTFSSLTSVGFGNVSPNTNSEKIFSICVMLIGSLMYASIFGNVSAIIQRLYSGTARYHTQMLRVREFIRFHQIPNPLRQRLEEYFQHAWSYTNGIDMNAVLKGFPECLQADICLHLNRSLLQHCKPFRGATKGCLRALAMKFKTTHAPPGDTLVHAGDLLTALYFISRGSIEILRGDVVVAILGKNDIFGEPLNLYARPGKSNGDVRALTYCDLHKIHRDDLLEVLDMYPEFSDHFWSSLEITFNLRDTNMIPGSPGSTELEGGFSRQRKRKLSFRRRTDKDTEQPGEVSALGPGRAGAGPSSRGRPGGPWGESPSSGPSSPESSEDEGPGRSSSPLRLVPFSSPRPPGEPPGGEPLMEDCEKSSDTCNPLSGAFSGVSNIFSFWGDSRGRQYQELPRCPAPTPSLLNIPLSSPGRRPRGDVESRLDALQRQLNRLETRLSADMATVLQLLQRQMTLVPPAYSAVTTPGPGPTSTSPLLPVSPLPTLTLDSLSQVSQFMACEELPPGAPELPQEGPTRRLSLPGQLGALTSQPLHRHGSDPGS

[5] = AUC(0 to infinity) in ICR mouse at 25 mg/kg, po measured upto 24 hrs by HPLC analysis; type: ADME, organism-based; settings: in vivo
[6] = Toxicity in po dosed ICR mouse administered as single dose and measured for 7 days; type: organism-based; settings: in vivo, time 7 day
[7] = Half-life in ICR mouse at 25 mg/kg, po measured upto 24 hrs by HPLC analysis; type: ADME, organism-based; settings: in vivo
[8] = Tmax in ICR mouse at 25 mg/kg, po measured upto 24 hrs by HPLC analysis; type: ADME, organism-based; settings: in vivo
[9] = Cmax in ICR mouse at 25 mg/kg, po measured upto 24 hrs by HPLC analysis; type: ADME, organism-based; settings: in vivo
[10] = Mean residence time in ICR mouse at 25 mg/kg, po measured upto 24 hrs by HPLC analysis; type: ADME, organism-based; settings: in vivo
[11] = Toxicity in ICR mouse assessed as increase in body weight at 500 mg/kg, po administered as single dose and measured for 7 days; type: organism-based; settings: in vivo, 168 h, time 7 day
[12] = Toxicity in ICR mouse assessed as animal death at 500 mg/kg, po administered as single dose and measured for 7 days; type: organism-based; settings: in vivo, 168 h, time 7 day
[13] = Toxicity in ICR mouse assessed as depression at 500 mg/kg, po administered as single dose and measured on next day; type: organism-based; settings: in vivo, 24 h, time 1 day
[14] = Toxicity in ICR mouse assessed as depression at 500 mg/kg, po administered as single dose and measured after 3 to 7 days; type: organism-based; settings: in vivo, time 3-7 day

CN(C1CCCCC1)N1CCN(c2nc(=O)c3cc(C(F)(F)F)cc([N+](=O)[O-])c3s2)CC1
MIC [1]: < 0.001 µg/mL
CC50 at 48 h [2]: > 64 µg/mL
selectivity ratio [3]: > 4200
inhibition at 10 µM [4]: 27.3%

CN(C1CCC(C)(C)CC1)N1CCN(c2nc(=O)c3cc(C(F)(F)F)cc([N+](=O)[O-])c3s2)CC1
AUC(0-inf) [5]: 1190 ng·h/mL
LD50 at 168 h [6]: > 500 mg/kg
half-life [7]: 5.07 h
Tmax [8]: 0.5 h
Cmax [9]: 501 ng/mL
MIC [1]: < 0.001 µg/mL
MRT [10]: 3.91 h
Activity [11]: Toxic
CC50 at 48 h [2]: > 64 µg/mL
selectivity ratio [3]: > 4200
Activity [12]: Non-Toxic
inhibition at 10 µM [4]: 6.1%

CC1CCCCC1N(C)N1CCN(c2nc(=O)c3cc(C(F)(F)F)cc([N+](=O)[O-])c3s2)CC1 (centres undefined)
MIC [1]: 0.00135 µg/mL (≈ 0.00278 µM)
CC50 at 48 h [2]: > 64 µg/mL
selectivity ratio [3]: > 4200

O=c1nc(N2CCN(NC3CCCCCCC3)CC2)sc2c([N+](=O)[O-])cc(C(F)(F)F)cc12
MIC [1]: < 0.001 µg/mL
CC50 at 48 h [2]: 46.9 µg/mL (≈ 96.7 µM)
selectivity ratio [3]: > 4200

CC1(C)CCC(NN2CCN(c3nc(=O)c4cc(C(F)(F)F)cc([N+](=O)[O-])c4s3)CC2)CC1
AUC(0-inf) [5]: 971 ng·h/mL
LD50 at 168 h [6]: > 500 mg/kg
half-life [7]: 1.23 h
Tmax [8]: 0.25 h
Cmax [9]: 755 ng/mL
MIC [1]: < 0.001 µg/mL
MRT [10]: 1.63 h
Activity [11]: Toxic
CC50 at 48 h [2]: 58.1 µg/mL (≈ 120 µM)
selectivity ratio [3]: > 4200
Activity [12]: Non-Toxic
inhibition at 10 µM [4]: 19.9%

CN(C1CCCCC1)N1CCN(c2nc(=O)c3cc(C(F)(F)F)cc([N+](=O)[O-])c3s2)CC1(C)C
MIC [1]: 0.0015 µg/mL (≈ 0.003 µM)
CC50 at 48 h [2]: > 64 µg/mL
selectivity ratio [3]: > 4200
inhibition at 10 µM [4]: 45.7%

CC1CCC(NN2CCN(c3nc(=O)c4cc(C(F)(F)F)cc([N+](=O)[O-])c4s3)CC2)CC1 (centres undefined)
MIC [1]: < 0.001 µg/mL
CC50 at 48 h [2]: > 64 µg/mL
selectivity ratio [3]: > 4200

O=c1nc(N2CCN(CC3CCCCC3)CC2)sc2c([N+](=O)[O-])cc(C(F)(F)F)cc12 [MACOZINONE]
MIC [1]: < 0.001 µg/mL
CC50 at 48 h [2]: > 64 µg/mL

CN(CC1CCC(F)(F)CC1)N1CCN(c2nc(=O)c3cc(C(F)(F)F)cc([N+](=O)[O-])c3s2)CC1
MIC [1]: < 0.001 µg/mL
CC50 at 48 h [2]: > 64 µg/mL
selectivity ratio [3]: > 4200

CN(C1CCC2(CCCCC2)CC1)N1CCN(c2nc(=O)c3cc(C(F)(F)F)cc([N+](=O)[O-])c3s2)CC1
MIC [1]: < 0.001 µg/mL
CC50 at 48 h [2]: 51.9 µg/mL (≈ 96.2 µM)
selectivity ratio [3]: > 4200

CC1CCC(C)C(N(C)N2CCN(c3nc(=O)c4cc(C(F)(F)F)cc([N+](=O)[O-])c4s3)CC2)C1 (centres undefined)
MIC [1]: < 0.001 µg/mL
CC50 at 48 h [2]: > 64 µg/mL
selectivity ratio [3]: > 4200

O=c1nc(N2CCN(NC3CCCCC3)CC2)sc2c([N+](=O)[O-])cc(C(F)(F)F)cc12
MIC [1]: < 0.001 µg/mL
CC50 at 48 h [2]: > 64 µg/mL
selectivity ratio [3]: > 4200

CON=C1CCC(N(C)N2CCN(c3nc(=O)c4cc(C(F)(F)F)cc([N+](=O)[O-])c4s3)CC2)CC1 (centres undefined)
MIC [1]: < 0.001 µg/mL
CC50 at 48 h [2]: > 64 µg/mL
selectivity ratio [3]: > 4200

CON=C1CCC(N(C)N2CCN(c3nc(=O)c4cc(C(F)(F)F)cc([N+](=O)[O-])c4s3)CC2C)CC1 (centres undefined)
MIC [1]: 0.0143 µg/mL (≈ 0.0271 µM)
CC50 at 48 h [2]: 12.3 µg/mL (≈ 23.3 µM)
selectivity ratio [3]: > 4200
inhibition at 10 µM [4]: 23.1%

NNC(=O)c1ccncc1 [ISONIAZID]
MIC [1]: 0.0374 µg/mL (≈ 0.273 µM)
CC50 at 48 h [2]: > 64 µg/mL

CC1CC(N(C)N2CCN(c3nc(=O)c4cc(C(F)(F)F)cc([N+](=O)[O-])c4s3)CC2)CC(C)(C)C1 (centres undefined)
MIC [1]: < 0.001 µg/mL
CC50 at 48 h [2]: > 64 µg/mL
selectivity ratio [3]: > 4200

CC1CN(c2nc(=O)c3cc(C(F)(F)F)cc([N+](=O)[O-])c3s2)CCN1N(C)C1CCC(C)(C)CC1 (centres undefined)
Activity [13]: Toxic
LD50 at 168 h [6]: > 500 mg/kg
MIC [1]: < 0.001 µg/mL
Activity [14]: Non-Toxic
Activity [11]: Toxic
CC50 at 48 h [2]: > 64 µg/mL
selectivity ratio [3]: > 4200
Activity [12]: Non-Toxic
inhibition at 10 µM [4]: 35.5%

O=c1nc(N2CCN(NC3CCC(F)(F)CC3)CC2)sc2c([N+](=O)[O-])cc(C(F)(F)F)cc12
MIC [1]: 0.00311 µg/mL (≈ 0.0063 µM)
CC50 at 48 h [2]: > 64 µg/mL
selectivity ratio [3]: > 4200
inhibition at 10 µM [4]: 46.8%

CN(C1CCC(C)(C)CC1)N1CCN(c2nc(=O)c3cc(C(F)(F)F)cc([N+](=O)[O-])c3s2)CC1(C)C
Activity [13]: Toxic
LD50 at 168 h [6]: > 500 mg/kg
MIC [1]: < 0.001 µg/mL
Activity [14]: Non-Toxic
Activity [11]: Toxic
CC50 at 48 h [2]: > 64 µg/mL
selectivity ratio [3]: > 4200
Activity [12]: Non-Toxic
inhibition at 10 µM [4]: 18.1%

CN(C1CCCCCCC1)N1CCN(c2nc(=O)c3cc(C(F)(F)F)cc([N+](=O)[O-])c3s2)CC1
MIC [1]: < 0.001 µg/mL
CC50 at 48 h [2]: > 64 µg/mL
selectivity ratio [3]: > 4200

CO[C@H]1/C=C/O[C@@]2(C)Oc3c(C)c(O)c4c(O)c(c(/C=N/N5CCN(C)CC5)c(O)c4c3C2=O)NC(=O)/C(C)=C\C=C\[C@H](C)[C@H](O)[C@@H](C)[C@@H](O)[C@@H](C)[C@H](OC(C)=O)[C@@H]1C [RIFAMPIN]
MIC [1]: 0.019 µg/mL (≈ 0.0231 µM)
CC50 at 48 h [2]: > 64 µg/mL

CC1CCC(N(C)N2CCN(c3nc(=O)c4cc(C(F)(F)F)cc([N+](=O)[O-])c4s3)CC2)CC1 (centres undefined)
MIC [1]: < 0.001 µg/mL
CC50 at 48 h [2]: > 64 µg/mL
selectivity ratio [3]: > 4200
inhibition at 10 µM [4]: 32.7%

CC1CN(c2nc(=O)c3cc(C(F)(F)F)cc([N+](=O)[O-])c3s2)CCN1N(C)C1CCCCC1 (centres undefined)
MIC [1]: < 0.001 µg/mL
CC50 at 48 h [2]: > 64 µg/mL
selectivity ratio [3]: > 4200

CN(C1C2CC3CC(C2)CC1C3)N1CCN(c2nc(=O)c3cc(C(F)(F)F)cc([N+](=O)[O-])c3s2)CC1 (centres undefined)
MIC [1]: 0.0025 µg/mL (≈ 0.00477 µM)
CC50 at 48 h [2]: > 64 µg/mL
selectivity ratio [3]: > 4200

CN(C1CCC(=NOC(C)(C)C)CC1)N1CCN(c2nc(=O)c3cc(C(F)(F)F)cc([N+](=O)[O-])c3s2)CC1 (centres undefined)
MIC [1]: 0.00721 µg/mL (≈ 0.013 µM)
CC50 at 48 h [2]: > 64 µg/mL
selectivity ratio [3]: > 4200

CN(C1CCC(F)(F)CC1)N1CCN(c2nc(=O)c3cc(C(F)(F)F)cc([N+](=O)[O-])c3s2)CC1
MIC [1]: < 0.001 µg/mL
CC50 at 48 h [2]: > 64 µg/mL
selectivity ratio [3]: > 4200

CC1CCCCC1NN1CCN(c2nc(=O)c3cc(C(F)(F)F)cc([N+](=O)[O-])c3s2)CC1 (centres undefined)
MIC [1]: 0.0014 µg/mL (≈ 0.00297 µM)
CC50 at 48 h [2]: 48.7 µg/mL (≈ 103 µM)
selectivity ratio [3]: > 4200

CON=C1CCC(N(C)N2CCN(c3nc(=O)c4cc(C(F)(F)F)cc([N+](=O)[O-])c4s3)CC2(C)C)CC1 (centres undefined)
MIC [1]: 0.0631 µg/mL (≈ 0.116 µM)
CC50 at 48 h [2]: 4.91 µg/mL (≈ 9.05 µM)
selectivity ratio [3]: > 4200

CCON=C1CCC(N(C)N2CCN(c3nc(=O)c4cc(C(F)(F)F)cc([N+](=O)[O-])c4s3)CC2)CC1 (centres undefined)
MIC [1]: 0.0118 µg/mL (≈ 0.0223 µM)
CC50 at 48 h [2]: 50.1 µg/mL (≈ 94.8 µM)
selectivity ratio [3]: > 4200
